In patent publication US10179929B2, “Water-soluble activatable molecular probes, intermediates for the synthesis thereof and associated detection methods” (ECOLE NORMALE SUPERIEURE DE LYON, priority 2014, dated 2019):

Experiment: Evaluation of hydrosolubility: presence or absence of precipitate in buffered solutions
Conditions: for hydrosolubility (presence or absence of precipitate): diluted from DMSO stock solution
Method: The hydrosolubility of the compounds was evaluated as a function of the presence or absence of precipitate in buffered solutions of the compounds in question at different concentrations.
These stock solutions were then diluted in a commercial PBS buffer in order to obtain a range of final concentrations between 1 mM and 50 μM. A compound was declared to be insoluble if a precipitate appeared and persisted after dilution.

appearance of stock solution in DMSO (100 mM in DMSO) | hydrosolubility (presence or absence of precipitate) (50 μM in PBS buffer) | hydrosolubility (presence or absence of precipitate) (100 μM in PBS buffer) | hydrosolubility (presence or absence of precipitate) (250 μM in PBS buffer) | hydrosolubility (presence or absence of precipitate) (500 μM in PBS buffer) | hydrosolubility (presence or absence of precipitate) (1 mM in PBS buffer) | SMILES
cloudy solution | – | – | – | – | – | Cc1cc(=O)oc2cc(NC(=O)[C@@H](N)CC(C)C)ccc12 [AMC-Leu, reference compound]
– | insoluble | insoluble | insoluble | insoluble | insoluble | Cc1cc(=O)oc2cc(OC(=O)N3CCCCC3CNC(=O)Cc3ccccc3)ccc12 (centres unmarked) [Compound 15, 4-methyl-2-oxo-2H-chromen-7-yl 2-((2-phenylacetamido)methyl)piperidine-1-carboxylate, reference compound]
– | soluble | soluble | insoluble | insoluble | insoluble | CCCCCCCC(=O)OCC1CCCCN1C(=O)Oc1ccc2c(C)cc(=O)oc2c1 (centres unmarked) [Compound 27, 4-methyl-2-oxo-2H-chromen-7-yl 2-((octanoyloxy)methyl)piperidine-1-carboxylate, reference compound]
– | soluble | soluble | soluble | soluble | soluble | COCCOCCOCCn1cc(CCC(=O)N2CCN(C(=O)Oc3ccc4c(C)cc(=O)oc4c3)C(CNC(=O)Cc3ccccc3)C2)nn1 (centres unmarked) [Compound 31, 4-methyl-2-oxo-2H-chromen-7-yl 4-(3-(1-(2-(2-(2-methoxyethoxy)ethoxy)ethyl)-1H-1,2,3-triazol-4-yl)propanoyl)-2-((2-phenylacetamido)methyl)piperazine-1-carboxylate]
– | soluble | soluble | soluble | soluble | soluble | COCCOCCOCCn1cc(CCC(=O)N2CCN(C(=O)Oc3ccc([N+](=O)[O-])cc3)C(CNC(=O)Cc3ccccc3)C2)nn1 (centres unmarked) [Compound 36, 4-nitrophenyl 4-(3-(1-(2-(2-(2-methoxyethoxy)ethoxy)ethyl)-1H-1,2,3-triazol-4-yl)propanoyl)-2-((2-phenylacetamido)methyl)piperazine-1-carboxylate]
– | soluble | soluble | soluble | insoluble | insoluble | COCCOCCOCCn1cc(CCC(=O)N2CCN(C(=O)Oc3ccc(Cl)cc3-c3nc4ccc(Cl)cc4c(=O)[nH]3)C(CNC(=O)Cc3ccccc3)C2)nn1 (centres unmarked) [Compound 39, 4-chloro-2-(6-chloro-4-oxo-3,4-dihydroquinazolin-2-yl)phenyl 4-(3-(1-(2-(2-(2-methoxyethoxy)ethoxy)ethyl)-1H-1,2,3-triazol-4-yl)propanoyl)-2-((2-phenylacetamido)methyl)piperazine-1-carboxylate]

SMILES | appearance of stock solution in DMSO (100 mM in DMSO) | hydrosolubility (presence or absence of precipitate) (50 μM in PBS buffer) | hydrosolubility (presence or absence of precipitate) (100 μM in PBS buffer) | hydrosolubility (presence or absence of precipitate) (250 μM in PBS buffer) | hydrosolubility (presence or absence of precipitate) (500 μM in PBS buffer) | hydrosolubility (presence or absence of precipitate) (1 mM in PBS buffer)
Cc1cc(=O)oc2cc(OC(=O)N3CCNCC3CNC(=O)Cc3ccccc3)ccc12 (centres unmarked) [Compound 12, 4-methyl-2-oxo-2H-chromen-7-yl 2-((2-phenylacetamido)methyl)piperazine-1-carboxylate] | – | soluble | soluble | soluble | soluble | soluble
CCCCCCCC(=O)OCC1CNCCN1C(=O)Oc1ccc2c(C)cc(=O)oc2c1 (centres unmarked) [Compound 21, 4-methyl-2-oxo-2H-chromen-7-yl 2-((octanoyloxy)methyl)piperazine-1-carboxylate] | – | soluble | soluble | soluble | insoluble | insoluble
CCCCCCCC(=O)OCC1CN(CCCCS(=O)(=O)O)CCN1C(=O)Oc1ccc2c(C)cc(=O)oc2c1 (centres unmarked) [Compound 22, 4-(4-(((4-methyl-2-oxo-2H-chromen-7-yl)oxy)carbonyl)-3-((octanoyloxy)methyl)piperazin-1-yl)butane-1-sulfonic Acid] | – | soluble | soluble | soluble | soluble | soluble
